The values that follow come from paper PMC6658616, “Novel Peptide Conjugates of Modified Oligonucleotides for Inhibition of Bacterial RNase P” (Frontiers in Pharmacology, 2019).

This series deals with E. coli RNase P (M1 RNA + C5 protein). The experiment in a line: Inhibition of RNase P hydrolysis of fluorescent RNA target by inhibiting oligonucleotides. It is filed as biochemical, Escherichia coli. Conditions: 5 nM M1 RNA, 50 nM C5 protein, 100 nM fluorescent RNA target, 0-125 nM inhibiting oligonucleotide, 10 mM Tris-HCl pH 7.5, 10 mM MgCl2, 100 mM NH4Cl, 37°C; fluorescence read-out; mean ± SD from two independent experiments.

“d-inh: oligodeoxyribonucleotide 5’-d(CAAGCAGCCTACCC) (DNA, backbone not given here)”: the IC50 came out at 270 ± 90 nM.
As for “r-inh: native oligoribonucleotide 5’-r(CAAGCAGCCUACCC), complementary to nucleotides 291–304 in the P15-loop of E. coli M1 RNA (RNA, backbone not given here)”, the figure is 12 ± 4 nM.
